The source of these data is patent US20090325208A1 (priority 2006, published 2009).

Molecules are shown by their SMILES.

In data set [1] the target is T1, 3-hydroxy-3-methylglutaryl-CoA synthase (HMGS) (Homo sapiens, UniProt Q01581).
T1 sequence (Q01581 1-520): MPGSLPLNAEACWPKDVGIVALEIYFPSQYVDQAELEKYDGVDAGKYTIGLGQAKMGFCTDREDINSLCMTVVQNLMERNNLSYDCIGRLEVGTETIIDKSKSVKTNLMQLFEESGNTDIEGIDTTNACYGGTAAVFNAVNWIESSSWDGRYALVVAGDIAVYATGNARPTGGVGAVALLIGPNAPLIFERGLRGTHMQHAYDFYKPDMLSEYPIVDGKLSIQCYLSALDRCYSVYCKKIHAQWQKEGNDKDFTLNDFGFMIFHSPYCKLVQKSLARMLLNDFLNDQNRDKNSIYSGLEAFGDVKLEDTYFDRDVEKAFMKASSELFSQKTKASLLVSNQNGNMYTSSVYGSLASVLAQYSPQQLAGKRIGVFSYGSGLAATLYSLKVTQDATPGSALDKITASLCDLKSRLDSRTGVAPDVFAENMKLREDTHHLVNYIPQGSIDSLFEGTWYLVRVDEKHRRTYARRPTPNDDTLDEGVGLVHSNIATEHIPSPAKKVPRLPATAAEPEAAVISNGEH
The conditions noted are these: cited from earlier work.

For a further data set, the target named is purified 20S proteasome (Homo sapiens, UniProt P28074). The conditions noted are these: read-out: IC50 against purified 20S proteasome; cited from earlier work.
In data set [2] the test system is multiple myeloma cells that have become refractory to bortezomib therapy. The conditions noted are these: cited from earlier work.
The test system of another data set is animal tumor models. The conditions noted are these: cited from earlier work.
A further data set addresses T2, yeast 20S proteasome (Saccharomyces cerevisiae, UniProt P30656).
T2 construct: minus the N-terminal propeptide that is cleaved off autocatalytically during assembly; purchased Chemicon International
Put plainly: 20S Proteasome Activity Assay (Chemicon), cleavage of LLVY-AMC. In kind it is biochemical. The conditions noted are these: preliminary experiments, FIG. 19. The text has this: (§1) Inhibition of the 20S proteasome will also be measured 20S for all new salinosporamides. The CHEMICON Proteasome Activity Assay Kit by Chemicon International provides a system that is designed to detect the chymotrypsin-like activity of the yeast 20S proteasome through the release of the fluorophore AMC (7-amino-4-methylcoumarin) from the specific substrate Suc-LLVY-AMC after cleavage. AMC can be detected using a fluorometer with a 380 nm excitation and a 460 nm emission filter. For inhibitor screening, the test sample is added to the assay plate and fluorescence read, looking for a reduction in proteasome activity.
(§2) The ubiquitin-proteasome pathway involves the 26S proteasome, which is formed by the barrel-shaped 20S proteasome (about 700 kDa) and two 19S (about 700 kDa) regulatory complexes on each end of the 20S proteasome. […] Cleavage of the free flourophore, 7-Amino-4-methylcoumarin (AMC) from LLVY can be detected and quantified using a 380/460 nm filter set in a flourmeter. […]
(§3) The present invention describes the biosynthesis of SalJ (FIG. 16). […] Yet, the assembled-recombinant 20S proteasome with the SalJ β-subunit (far right two bars) confers resistance to at least SalA as there was no substantial measurable difference in the level of fluorescence of the free AMC (FIG. 19) in the presence or absence of SalA. […]

The subject of data set [3] is S. tropica 20S proteasome. Described as above. The data set is classed as biochemical. The conditions noted are these: preliminary experiments, FIG. 19.
From the text: as §1, §2, §3

For data set [4], the system named is colon, pancreatic, and lung cancers. The conditions noted are these: cited from earlier work.
Data set [5] relates to assembled 20S proteasome from recombinant subunits containing the SalJ β-subunit. Put plainly: 20S Proteasome Activity Assay (Chemicon), cleavage of LLVY-AMC. The data set is classed as biochemical, S. tropica. The conditions noted are these: assembled recombinant 20S proteasome with SalJ β-subunit (Ala→Val at residue 49); FIG. 19.
From the text: as §1, §2, §3

For the compound `CC(=C\C(=O)O)/C=C(\C)C[C@H](C)CCCC[C@H]1OC(=O)[C@@H]1CO` [F-244], the IC50 in data set [1] was 35 nM.

Take `CC(C)[C@H](O)[C@@]12NC(=O)[C@H](C)[C@@H]1OC2=O` [omuralide, clasto-lactacystin-β-lactone, reference compound]: at purified 20S proteasome, the IC50 was 49 nM.

For the compound `C[C@@]12OC(=O)[C@]1([C@@H](O)[C@@H]1C=CCCC1)NC(=O)[C@@H]2CCCl` [salinosporamide A], in data set [2], the induction of apoptosis result is “induces apoptosis”. For the same compound, in the data set with animal tumor models, the oral activity result was “orally active”, the survival entry was “prolongs survival” and the tolerability result was “well tolerated”. Moreover, the “inhibition of 20S proteasome (fluorescence of free AMC)” value against yeast 20S proteasome is “inhibited”. Further, in data set [3], the “inhibition of 20S proteasome (fluorescence of free AMC)” value is “inhibited”. Further, in data set [4], the “efficacy in animal models” value is given as “efficacious”. For the same compound, in data set [5], the “inhibition of 20S proteasome (fluorescence of free AMC)” value is on record as “not inhibited”.

By IC50 is commonly meant the concentration that inhibits the measured activity by half.
